Results on eleven compounds are retold here after ChEMBL document CHEMBL1201862, “PubChem BioAssay data set” (2004).

“And” between values parts separate entries of the source, which are not always exact repeats. Equal values may be shown once.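 Five compound concentrations were applied to cells in 96-well plates for 48 hours; endpoints were derived by simple linear interpolation of the resulting dose-response curve. GI50: concentration for 50% inhibition of growth.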 The source made the active and inactive calls. Cut-off read from the data, not from the text of the source: active = GI50 up to about 1.1 µM and inactive = higher.

Holding throughout (assay): inhibition of tumour cell growth, NCI panel, 48 h
The subject of assay [1] is NCI-H460.
Assay [2] relates to HCT-116.
Assay [3] deals with MCF7.
Assay [4] relates to SF-539.
Assay [5] concerns SNB-75.
The test system of assay [6] is NCI-H522.
In assay [7] the test system is M14.
The test system of assay [8] is HCT-15.
Assay [9] concerns TK-10.
Assay [10] relates to DU-145.
The test system of assay [11] is CCRF-CEM.
For assay [12], the system named is RXF 393.
Assay [13] relates to ACHN.
The subject of assay [14] is MOLT-4.
Assay [15] concerns HCC 2998.
In assay [16] the test system is UO-31.
Assay [17] deals with HT-29.
Assay [18] concerns OVCAR-4.
Assay [19] relates to SK-OV-3.
For assay [20], the system named is 786-0.

Turning to `COc1ccc(N2NC(c3ccccc3)(c3ccccc3)C(C)C2=O)cc1` (centres undefined), the GI50 in assay [1] is 29.6 µM (inactive); in [2], 43 µM (inactive); in assay [3], 25.5 µM (inactive); in assay [4], 85.1 µM (inactive); in [5], > 100 µM (inactive); in [6], 43.9 µM (inactive). Besides, the GI50 in [7] was 57.1 µM (inactive); in [8], 39.5 µM; in [9] it was 86.7 µM (inactive); in [10] it was > 100 µM (inactive); in assay [11], 35.6 µM (inactive); in assay [12], 52.4 µM (inactive). For the same compound, the GI50 in assay [13] is 42.7 µM (inactive); in assay [14], 49.2 µM (inactive); in [15] it was > 100 µM (inactive); in assay [16], 30.1 µM (inactive); in assay [17], 40 µM (inactive); in [18], > 100 µM (inactive).
Take `CC#CC(O)(C(=O)OC1CCC2CCC1N2C)C1CCCC1` (centres undefined): the GI50 in [2], in [3], in assay [4], in [5], in assay [6] and in assay [19] was > 100 µM (inactive) in each case. For the same compound, the GI50 in assay [7] is > 100 µM (inactive); in [8] it was more than 100 µM; in assay [20], > 100 µM (inactive); in assay [9], > 100 µM (inactive); in assay [10], > 100 µM (inactive); in assay [12], > 100 µM (inactive). Besides, the GI50 in assay [13] is > 10 µM (inactive); in [14] it was > 100 µM (inactive); in assay [15] it was > 100 µM (inactive); in [16], > 100 µM (inactive); in assay [17], > 100 µM (inactive).
For `c1cc(CNC2C3CCC(C3)C2c2c[nH]c3ccccc23)cc(CNC2C3CCC(C3)C2c2c[nH]c3ccccc23)c1` (centres undefined), the GI50 was 366 nM (active) and 405 nM (active) in assay [1]; 0.205 µM (active) in [3]; 752 nM (active) and 1.3 µM (inactive) in [5]; 1.12 µM (active) and 1.36 µM (inactive) in [6]; 1.85 µM (inactive) and 1.8 µM (inactive) in [19]; 667 nM (active) and 638 nM (active) in assay [7]. Besides, the GI50 in assay [9] was 1.73 µM (inactive) and 1.94 µM (inactive); in assay [10], 1.57 µM (inactive) and 1.3 µM (inactive); in assay [11], 195 nM (active) and 325 nM (active); in assay [12], 1.22 µM (inactive) and 1.31 µM (inactive); in [13], 1.19 µM (inactive) and 1.57 µM (inactive); in assay [15], 127 nM (active) and 145 nM (active). Further, the GI50 in assay [16] is 229 nM (active) and 160 nM (active); in assay [18], 1.7 µM (inactive) and 1.58 µM (inactive).
On to `Oc1ccc(Br)cc1/C=N/C1CCCCC1`, for which the GI50 in assay [1] was 71.4 µM (inactive); in assay [2], 12.4 µM (inactive); in [3], 14.6 µM (inactive); in assay [4] it was 38.7 µM (inactive); in [6] it was 55.3 µM (inactive); in assay [19], 55.3 µM (inactive). Further, the GI50 in [7] is 34.8 µM (inactive); in assay [8], 5.56 µM; in assay [20] it was 22.9 µM (inactive); in [9], > 100 µM (inactive); in [10] it was 21.4 µM (inactive); in assay [11], 5.37 µM (inactive). The GI50 was > 100 µM (inactive) in assay [12]; 65.5 µM (inactive) in assay [13]; 18.8 µM (inactive) in [14]; 25.5 µM (inactive) in [15]; 33.8 µM (inactive) in assay [16]; 42.3 µM (inactive) in assay [17]. The GI50 in [18] is 21.1 µM (inactive).
With `COc1ccc(N2C(=O)C(=O)C3(CCCCC3)C2=O)c2ccccc12`, the GI50 in assay [1], in assay [2], in [3], in assay [4], in assay [5] and in [6] was > 10 µM (inactive) throughout. Besides, the GI50 in [19] is > 10 µM (inactive); in [7] it was > 10 µM (inactive); in assay [8], more than 10 µM; in assay [9], > 10 µM (inactive); in assay [10], > 10 µM (inactive); in [11] it was > 10 µM (inactive). The GI50 was > 10 µM (inactive) in assay [12]; > 10 µM (inactive) in assay [13]; > 10 µM (inactive) in assay [14]; > 10 µM (inactive) in assay [15]; 9.77 µM (inactive) in assay [16]; > 10 µM (inactive) in assay [17]. The GI50 in assay [18] was > 10 µM (inactive).
In the case of `C[n+]1cccc2c(=O)c3ccccc3oc21`, the GI50 in assay [1], in [2], in assay [3], in [4], in assay [5] and in [6] was > 100 µM (inactive) throughout. Further, the GI50 is > 100 µM (inactive) in assay [19]; > 100 µM (inactive) in assay [7]; more than 100 µM in assay [8]; > 100 µM (inactive) in [9]; > 100 µM (inactive) in assay [10]; > 100 µM (inactive) in [11]. In addition, the GI50 in assay [12] is > 100 µM (inactive); in assay [13], > 100 µM (inactive); in [15], > 100 µM (inactive); in [16] it was 69.5 µM (inactive); in assay [17] it was > 100 µM (inactive); in assay [18] it was > 100 µM (inactive).
For `OC(NN=C1CCCC1)(C(F)(F)Cl)C(F)(F)Cl`, the GI50 in [1], in assay [2], in [3], in [4], in assay [5] and in assay [6] was > 10 µM (inactive) throughout. Further, the GI50 in assay [19] was > 10 µM (inactive); in assay [7], > 10 µM (inactive); in [8], more than 10 µM; in assay [20], > 10 µM (inactive); in assay [9], > 10 µM (inactive); in assay [10], > 10 µM (inactive). The GI50 in assay [11], in assay [12], in [13], in assay [14], in assay [15] and in assay [17] was > 10 µM (inactive) throughout. Further, in assay [18], the GI50 is > 10 µM (inactive).
As to `O=c1[nH]c(=S)[nH]c2c(C3OC(CO)C(O)C3O)nsc12` (centres undefined), the GI50 in assay [1], in [2], in assay [3], in [4], in assay [5] and in assay [19] was > 100 µM (inactive) in each case. Moreover, the GI50 in [7] is > 100 µM (inactive); in assay [8], more than 100 µM; in assay [9], > 100 µM (inactive); in assay [10], > 100 µM (inactive); in assay [11] it was > 100 µM (inactive); in assay [12], > 100 µM (inactive). The GI50 in [14], in [15], in assay [17] and in assay [18] was > 100 µM (inactive) in each case.
As to `O=C1c2[nH]c3ccc(Br)cc3c2CCN1Cc1ccc(Cl)cc1`, the GI50 was 10.4 µM (inactive) in [2]; 16.6 µM (inactive) in assay [3]; 10.7 µM (inactive) in assay [4]; 20.9 µM (inactive) in [5]; 17.9 µM (inactive) in assay [6]; 13.2 µM (inactive) in assay [7]. The GI50 in assay [8] is 3.99 µM; in assay [20], 11.3 µM (inactive); in [9], 13.7 µM (inactive); in [10], 14.2 µM (inactive); in assay [11], 12.3 µM (inactive); in assay [12], 16.9 µM (inactive). Further, the GI50 in assay [13] is 10.8 µM (inactive); in [15] it was 14.5 µM (inactive); in assay [16], 16.4 µM (inactive); in [17], > 100 µM (inactive); in assay [18], 18.6 µM (inactive).
On to `CN(C)C(=S)N/N=C(\C(=N/NC(=S)N(C)C)c1ccccn1)c1ccccn1`, for which the GI50 was 2.56 µM (inactive) in [1]; 5.78 µM (inactive) in assay [2]; 1.66 µM (inactive) in assay [3]; 25.5 µM (inactive) in assay [4]; 12.2 µM (inactive) in assay [5]; 2.65 µM (inactive) in [6]. The GI50 is 14.4 µM (inactive) in [19]; 11.4 µM (inactive) in assay [7]; 6.81 µM in assay [8]; 10.4 µM (inactive) in assay [20]; 8.11 µM (inactive) in assay [9]; 4.21 µM (inactive) in [10]. Moreover, the GI50 was 5.21 µM (inactive) in assay [12]; 6.61 µM (inactive) in assay [13]; 7.55 µM (inactive) in [15]; 6.7 µM (inactive) in [16]; 3.22 µM (inactive) in [17]; 7.28 µM (inactive) in assay [18].
For the compound `CCOc1ccc(/N=N/S(=O)(=O)O)cc1`, the GI50 in assay [1], in [2], in [3], in assay [4], in [5] and in [6] was > 100 µM (inactive) each time. Further, the GI50 in assay [19] was > 100 µM (inactive); in assay [7], > 100 µM (inactive); in assay [8], more than 100 µM; in [20], > 100 µM (inactive); in [9], > 100 µM (inactive); in [10] it was > 100 µM (inactive). Besides, the GI50 in assay [11], in assay [12], in assay [13], in assay [15], in [16] and in assay [17] was > 100 µM (inactive) in each case. Also, the GI50 in assay [18] was > 100 µM (inactive).
